From ChEMBL document CHEMBL5625216, “Design, synthesis, and biological evaluation of 3, 5-disubsituted-1H-pyrazolo[3,4-b]pyridines as multiacting inhibitors against microtubule and kinases” (Eur J Med Chem, 2023)

Assays:
[1] = in vivo; conditions: ICR, mouse, iv, 5 mg/kg
[2] = in vivo; conditions: ICR, mouse, po, 15 mg/kg
[3] = in vivo; conditions: ICR, mouse, iv, 5 mg/kg; remark: listed apart in the source
[4] = in vivo; conditions: ICR, mouse, po, 15 mg/kg; remark: listed apart in the source
[5] = in vivo; conditions: ICR, mouse, iv, 5 mg/kg; remark: listed apart in the source
[6] = in vivo; conditions: ICR, mouse, po, 15 mg/kg; remark: listed apart in the source
[7] = in vivo; conditions: ICR, mouse, iv, 5 mg/kg; remark: listed apart in the source
[8] = in vivo; conditions: ICR, mouse, po, 15 mg/kg; remark: listed apart in the source
[9] = in vivo; conditions: ICR, mouse, iv, 5 mg/kg; remark: listed apart in the source
[10] = in vivo; conditions: ICR, mouse, iv, 5 mg/kg; remark: listed apart in the source
[11] = in vivo; conditions: ICR, mouse, po, 15 mg/kg; remark: listed apart in the source

Question: Which AUC(0-t) at 24 h [1] does the source give for `COc1cc(-c2n[nH]c3ncc(-c4ccc(C)c(NCCO)c4)cc23)cc(OC)c1OC` here?
Answer: Its AUC(0-t) at 24 h is 1150 ng·h/mL.

Question: And the AUC(0-t) at 24 h [2]?
Answer: The AUC(0-t) at 24 h was 110 ng·h/mL.

Question: And the half-life at 24 h [3]?
Answer: The half-life at 24 h was 78 min.

Question: And the half-life at 24 h [4]?
Answer: Its half-life at 24 h is 72 min.

Question: And the Tmax at 24 h [5]?
Answer: The Tmax at 24 h was 6 min.

Question: What about the Tmax at 24 h [6] of the same compound?
Answer: Its Tmax at 24 h is 18 min.

Question: And the Cmax at 24 h [7]?
Answer: The Cmax at 24 h was 3850 ng/mL.

Question: What about the Cmax at 24 h [8] of the same compound?
Answer: Its Cmax at 24 h is 115 ng/mL.

Question: And the Vd at 24 h [9]?
Answer: Its Vd at 24 h is 1.3 L/kg.

Question: What about the clearance at 24 h [10] of the same compound?
Answer: Its clearance at 24 h is 73.3 mL/min/kg.

Question: And the bioavailability at 24 h [11]?
Answer: The bioavailability at 24 h was 3.2%.
